The values below come from US10472356B2, “Bicyclic ketone sulfonamide compounds” (AMGEN INC., priority 2015, dated 2019).

Common to all, as to assay type: cell-based
Test [1] concerns the target T1, human Nav1.7 (Homo sapiens, UniProt Q15858).
T1 construct: expressed in transfected cells; host or cells: HEK293
Nature of the test: Nav 1.7 IWQ In Vitro Assay (IonWorks Quattro). The conditions noted are these: HEK293 cells stably transfected with human Nav 1.7; IonWorks Quattro population patch-clamp; 26th pulse to −20 mV, 5 Hz; cells unclamped 5 to 8 minutes with compound; read-out: hNav1.7 IWQ IC50. The method, then: Nav 1.7 or Nav 1.5 IWQ In Vitro Assay
HEK293 cells stably transfected with either human Nav 1.7 or human Nav 1.5 were recorded in population patch-clamp mode with the IonWorks® Quattro automated electrophysiology system (Molecular Devices, LLC, Sunnyvale, Calif.). Cells were voltage clamped to −110 mV for three seconds (Nav 1.7) or half a second (Nav 1.5) and sodium currents were elicited by a train of 26 depolarizations of 150 msec duration to −20 mV (Nav 1.7) or 0 mV (Nav 1.5) at a frequency of 5 Hz. Cells were then left unclamped for a period of 5 to 8 minutes while a single concentration of test compound was added. Following this compound incubation period, cells were then reclamped to −110 mV for three seconds (Nav1.7) or half a second (Nav1.5) to recover unbound channels and put through the same 26 pulse voltage protocol as above. Peak inward current during the 26th pulse to −20 mV (Nav 1.7) or 0 mV (Nav 1.5) in the presence of compound was divided by the peak inward current evoked by the 26th pulse to −20 mV (Nav1.7) or 0 mV (Nav1.5) in the absence of compound to determine percent inhibition. Concentration-response curves of percent.
On the technique in general: Patch clamp records ionic current or voltage across a cell membrane.

Test [2] addresses T1, human Nav1.7. Briefly: Nav 1.7 In Vitro PatchXpress (PX) Assay. Particulars: HEK 293 cells stably transfected with human Nav1.7; PatchXpress whole cell voltage clamp; partially inactivated state (holding potential yielding 20 to 50% inactivation); read-out: hNav1.7 PX IC50. In short, it runs like this:
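Whole-cell voltage clamp on HEK 293 cells stably expressing human Nav1.7 (automated patch), holding potential giving 20–50% inactivation; 20 ms pulses to −10 mV at 0.1 Hz. Single compound concentration applied 3 min, peak current inhibition measured; IC50 fitted from 3–5 cells per concentration.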

For test [3], the target named is T1, human Nav1.7. Nature of the test: Nav 1.7 IWB In Vitro Assay (IonWorks Barracuda). Particulars: HEK293 cells stably transfected with human Nav 1.7; IonWorks Barracuda population patch-clamp; cells clamped to −20 mV for 4 minutes with compound; 26th pulse; read-out: hNav1.7 IWB IC50. The gist of the method: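 Population patch clamp of HEK293 cells stably expressing human Nav 1.7: 26 pulses to −20 mV (150 ms, 5 Hz) from −110 mV, then 4 min at −20 mV with compound, 3 s recovery at −110 mV and the train repeated. % inhibition of 26th-pulse peak current vs no compound; IC50 from concentration-response curves.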

T1 sequence (Q15858 whole entry): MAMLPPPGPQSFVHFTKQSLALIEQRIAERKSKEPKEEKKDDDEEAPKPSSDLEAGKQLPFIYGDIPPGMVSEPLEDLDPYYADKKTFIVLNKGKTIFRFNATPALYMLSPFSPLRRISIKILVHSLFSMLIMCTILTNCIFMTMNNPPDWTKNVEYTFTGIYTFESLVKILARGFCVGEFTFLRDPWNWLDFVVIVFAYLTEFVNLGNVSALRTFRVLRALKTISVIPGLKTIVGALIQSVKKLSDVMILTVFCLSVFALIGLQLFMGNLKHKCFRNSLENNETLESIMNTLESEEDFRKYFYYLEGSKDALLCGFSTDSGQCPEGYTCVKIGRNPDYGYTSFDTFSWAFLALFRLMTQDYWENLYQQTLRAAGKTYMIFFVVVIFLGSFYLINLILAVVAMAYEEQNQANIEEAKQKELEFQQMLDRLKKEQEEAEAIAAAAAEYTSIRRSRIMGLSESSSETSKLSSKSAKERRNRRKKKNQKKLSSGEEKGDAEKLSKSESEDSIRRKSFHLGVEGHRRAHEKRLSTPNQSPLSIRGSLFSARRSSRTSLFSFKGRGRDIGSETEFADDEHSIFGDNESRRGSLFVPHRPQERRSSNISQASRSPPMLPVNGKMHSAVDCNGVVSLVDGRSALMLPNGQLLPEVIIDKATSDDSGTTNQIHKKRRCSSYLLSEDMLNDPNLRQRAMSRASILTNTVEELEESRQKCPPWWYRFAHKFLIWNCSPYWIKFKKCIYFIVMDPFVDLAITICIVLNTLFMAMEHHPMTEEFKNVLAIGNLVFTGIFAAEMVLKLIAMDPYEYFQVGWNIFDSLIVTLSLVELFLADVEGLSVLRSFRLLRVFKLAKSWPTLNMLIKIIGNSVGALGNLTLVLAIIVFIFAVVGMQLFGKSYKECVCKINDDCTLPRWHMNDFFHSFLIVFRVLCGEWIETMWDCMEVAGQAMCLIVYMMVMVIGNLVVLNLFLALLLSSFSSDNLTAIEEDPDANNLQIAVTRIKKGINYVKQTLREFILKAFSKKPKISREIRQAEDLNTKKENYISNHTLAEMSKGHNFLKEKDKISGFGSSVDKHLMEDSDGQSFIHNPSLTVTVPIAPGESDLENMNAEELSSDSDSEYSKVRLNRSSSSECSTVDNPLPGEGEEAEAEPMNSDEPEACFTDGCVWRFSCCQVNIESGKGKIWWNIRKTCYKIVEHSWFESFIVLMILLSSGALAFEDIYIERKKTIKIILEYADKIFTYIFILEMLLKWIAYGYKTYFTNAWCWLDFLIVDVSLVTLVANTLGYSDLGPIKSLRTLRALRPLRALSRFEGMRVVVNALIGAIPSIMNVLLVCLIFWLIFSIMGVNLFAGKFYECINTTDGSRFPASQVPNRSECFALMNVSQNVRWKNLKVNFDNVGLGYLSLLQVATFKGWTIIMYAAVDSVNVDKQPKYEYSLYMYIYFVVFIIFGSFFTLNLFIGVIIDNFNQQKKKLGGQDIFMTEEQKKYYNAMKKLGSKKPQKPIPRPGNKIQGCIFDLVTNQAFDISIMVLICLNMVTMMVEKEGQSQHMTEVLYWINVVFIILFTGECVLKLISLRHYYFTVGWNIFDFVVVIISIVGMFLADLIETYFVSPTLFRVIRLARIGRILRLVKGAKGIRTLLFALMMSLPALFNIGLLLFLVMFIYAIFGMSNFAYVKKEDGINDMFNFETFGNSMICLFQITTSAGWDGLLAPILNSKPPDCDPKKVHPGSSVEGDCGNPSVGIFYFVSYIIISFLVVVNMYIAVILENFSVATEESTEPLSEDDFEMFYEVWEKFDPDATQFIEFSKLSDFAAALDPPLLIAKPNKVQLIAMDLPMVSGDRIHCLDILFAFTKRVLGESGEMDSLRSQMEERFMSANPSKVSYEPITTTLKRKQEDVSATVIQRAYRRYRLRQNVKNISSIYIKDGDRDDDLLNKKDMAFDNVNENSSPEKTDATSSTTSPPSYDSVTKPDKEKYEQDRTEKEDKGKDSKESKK

For the compound `COc1cc(-c2cc(F)cc(F)c2)c(F)cc1-n1c2c(ccc1=O)CN(S(=O)(=O)Nc1ccon1)[C@H](C)C2` [Example 3-D-P, P-(7R)-N-3-isoxazolyl-7-methyl-2-oxo-1-(2,3′,5′-trifluoro-5-methoxy-4-biphenylyl)-1,5,7,8-tetrahydro-1,6-naphthyridine-6(2H)-sulfonamide], the results for the half-maximal inhibitory concentration (IC50) at human Nav1.7 [1], at human Nav1.7 [2] and at human Nav1.7 [3] were 0.0405 µM, 0.23 µM and 0.04 µM, respectively.

Consider `COc1cc(-c2cccc(C(F)(F)F)c2)c(F)cc1-n1c2c(ccc1=O)CN(S(=O)(=O)Nc1ccon1)CC2` (single isomer, unassigned) [Example 16-P, P-1-(2-fluoro-5-methoxy-3′-(trifluoromethyl)-4-biphenylyl)-N-3-isoxazolyl-2-oxo-1,5,7,8-tetrahydro-1,6-naphthyridine-6(2H)-sulfonamide], for which the IC50 at human Nav1.7 [1] came to 0.0026 µM; at human Nav1.7 [2], 0.0158 µM; on human Nav1.7 [3] it was 0.0024 µM.

As to `COc1cc(-c2ccc(Cl)c(C)c2)c(F)cc1-n1c2c(ccc1=O)CN(S(=O)(=O)Nc1cccnn1)CC2` (racemic) [Example 33-(Rac), (Rac)-1-(4′-chloro-2-fluoro-5-methoxy-3′-methyl-4-biphenylyl)-2-oxo-N-3-pyridazinyl-1,5,7,8-tetrahydro-1,6-naphthyridine-6(2H)-sulfonamide], the IC50 is 0.0196 µM on human Nav1.7 [1], 0.0533 µM at human Nav1.7 [2] and 0.0261 µM at human Nav1.7 [3].

In the case of `COc1cc(-c2ccc(Cl)c(C#N)c2)c(F)cc1-n1c2c(ccc1=O)CN(S(=O)(=O)Nc1ccon1)CC2` (racemic) [Example 35, (Rac)-1-(4′-chloro-3′-cyano-2-fluoro-5-methoxy-4-biphenylyl)-N-3-isoxazolyl-2-oxo-1,5,7,8-tetrahydro-1,6-naphthyridine-6(2H)-sulfonamide], the values for the IC50 on human Nav1.7 [1], on human Nav1.7 [2] and on human Nav1.7 [3] were 0.004 µM, 0.177 µM and 0.018 µM, respectively.

On to `COc1cc(-c2cc(F)cc(Cl)c2)c(F)cc1-n1c2c(ccc1=O)CN(S(=O)(=O)Nc1ncccn1)CC2` (racemic) [Example 31, (Rac)-1-(3′-chloro-2,5′-difluoro-5-methoxy-4-biphenylyl)-2-oxo-N-2-pyrimidinyl-1,5,7,8-tetrahydro-1,6-naphthyridine-6(2H)-sulfonamide], for which the IC50 at human Nav1.7 [1] was 0.0281 µM; at human Nav1.7 [2] it was 0.137 µM; on human Nav1.7 [3] it was 0.0362 µM.

Consider `COc1cc(-c2ccc(Cl)c(C)c2)c(F)cc1-n1c2c(ccc1=O)CN(S(=O)(=O)Nc1ncccn1)CC2` (single isomer, unassigned) [Example 30-P, P-1-(4′-chloro-2-fluoro-5-methoxy-3′-methyl-4-biphenylyl)-2-oxo-N-2-pyrimidinyl-1,5,7,8-tetrahydro-1,6-naphthyridine-6(2H)-sulfonamide], for which the IC50 stood at 0.0133 µM at human Nav1.7 [1], 0.197 µM on human Nav1.7 [2] and 0.0375 µM on human Nav1.7 [3].

Regarding `COc1cc(-c2ccc(F)c(F)c2)c(F)cc1-n1c2c(ccc1=O)CN(S(=O)(=O)Nc1cccnn1)CC2` (single isomer, unassigned) [Example 32-P, P-2-oxo-N-3-pyridazinyl-1-(2,3′,4′-trifluoro-5-methoxy-4-biphenylyl)-1,5,7,8-tetrahydro-1,6-naphthyridine-6(2H)-sulfonamide], the figures for the IC50 on human Nav1.7 [1], at human Nav1.7 [2] and at human Nav1.7 [3] were 0.0184 µM, 0.144 µM and 0.0175 µM, respectively.

Regarding `COc1cc(-c2cc(F)cc(Cl)c2)c(F)cc1-n1c2c(ccc1=O)CN(S(=O)(=O)Nc1cccc(F)n1)CC2` (single isomer, unassigned) [Example 13-P, P-1-(3′-chloro-2,5′-difluoro-5-methoxy-4-biphenylyl)-N-(6-fluoro-2-pyridinyl)-2-oxo-1,5,7,8-tetrahydro-1,6-naphthyridine-6(2H)-sulfonamide], the figures for the IC50 at human Nav1.7 [1], at human Nav1.7 [2] and on human Nav1.7 [3] were 0.0284 µM, 0.0279 µM and 0.0271 µM, respectively.

On to `COc1cc(-c2cc(F)cc(F)c2)c(F)cc1-n1c2c(ccc1=O)[C@H](C)N(S(=O)(=O)Nc1ccon1)CC2` (single isomer, unassigned) [Example 3-B-P], for which the IC50 on human Nav1.7 [1] came to 0.224 µM; at human Nav1.7 [2], 2.08 µM; at human Nav1.7 [3] it was 0.197 µM.

On to `COc1cc(-c2cc(F)cc(Cl)c2)c(F)cc1-n1c2c(ccc1=O)CN(S(=O)(=O)Nc1cc(C)ncn1)CC2` (single isomer, unassigned) [Example 4-P, P-1-(3′-chloro-2,5′-difluoro-5-methoxy-4-biphenylyl)-N-(6-methyl-4-pyrimidinyl)-2-oxo-1,5,7,8-tetrahydro-1,6-naphthyridine-6(2H)-sulfonamide], for which the half-inhibitory concentration (IC50) is 0.0243 µM at human Nav1.7 [1], 0.0784 µM on human Nav1.7 [2] and 0.0318 µM on human Nav1.7 [3].

As for `COc1cc(-c2cc(F)cc(Cl)c2)c(F)cc1-n1c2c(ccc1=O)CN(S(=O)(=O)Nc1ccccn1)CC2` (single isomer, unassigned) [Example 11-P, P-1-(3′-chloro-2,5′-difluoro-5-methoxy-4-biphenylyl)-2-oxo-N-2-pyridinyl-1,5,7,8-tetrahydro-1,6-naphthyridine-6(2H)-sulfonamide], the half-inhibitory concentration (IC50) at human Nav1.7 [1] is 0.054 µM; at human Nav1.7 [2] it was 0.166 µM; on human Nav1.7 [3], 0.0553 µM.

Regarding `COc1cc(-c2cccc(OC(F)F)c2)c(F)cc1-n1c2c(ccc1=O)CN(S(=O)(=O)Nc1ccon1)CC2` (single isomer, unassigned) [Example 19-P, P-1-(3′-(difluoromethoxy)-2-fluoro-5-methoxy-4-biphenylyl)-N-3-isoxazolyl-2-oxo-1,5,7,8-tetrahydro-1,6-naphthyridine-6(2H)-sulfonamide], the 50% inhibitory concentration (IC50) at human Nav1.7 [1] was 0.005 µM; at human Nav1.7 [2] it was 0.0333 µM; at human Nav1.7 [3], 0.0074 µM.

As for `COc1cc(-c2ccc(F)c(F)c2)c(F)cc1-n1c2c(ccc1=O)CN(S(=O)(=O)Nc1ccon1)CC2` (racemic) [Example 20-(Rac), (Rac)-N-3-isoxazolyl-2-oxo-1-(2,3′,4′-trifluoro-5-methoxy-4-biphenylyl)-1,5,7,8-tetrahydro-1,6-naphthyridine-6(2H)-sulfonamide], the IC50 on human Nav1.7 [1] stood at 0.0067 µM; at human Nav1.7 [2], 0.159 µM; at human Nav1.7 [3], 0.0315 µM.

Consider `COc1cc(-c2cccc(C(F)(F)F)c2)c(F)cc1-n1c2c(ccc1=O)CN(S(=O)(=O)Nc1ccon1)CC2` (racemic) [Example 16-(Rac), (Rac)-1-(2-fluoro-5-methoxy-3′-(trifluoromethyl)-4-biphenylyl)-N-3-isoxazolyl-2-oxo-1,5,7,8-tetrahydro-1,6-naphthyridine-6(2H)-sulfonamide], for which the IC50 at human Nav1.7 [1] stood at 0.0047 µM; on human Nav1.7 [2], 0.0388 µM; at human Nav1.7 [3] it was 0.0053 µM.

Turning to `COc1cc(-c2ccc(Cl)c(C)c2)c(F)cc1-n1c2c(ccc1=O)CN(S(=O)(=O)Nc1ccon1)CC2` (single isomer, unassigned) [Example 24-P, P-1-(4′-chloro-2-fluoro-5-methoxy-3′-methyl-4-biphenylyl)-N-3-isoxazolyl-2-oxo-1,5,7,8-tetrahydro-1,6-naphthyridine-6(2H)-sulfonamide], the figures for the half-inhibitory concentration (IC50) at human Nav1.7 [1], on human Nav1.7 [2] and on human Nav1.7 [3] were 0.0052 µM, 0.0209 µM and 0.0038 µM, respectively.

Consider `COc1cc(-c2cc(Cl)ccc2C)c(F)cc1-n1c2c(ccc1=O)CN(S(=O)(=O)Nc1ccon1)CC2` (racemic) [9-(Rac), (Rac)-1-(5′-chloro-2-fluoro-5-methoxy-2′-methyl-4-biphenylyl)-N-3-isoxazolyl-2-oxo-1,5,7,8-tetrahydro-1,6-naphthyridine-6(2H)-sulfonamide], for which the concentration for half-maximal inhibition (IC50) on human Nav1.7 [1] turned out to be 0.0046 µM; at human Nav1.7 [2], 0.0307 µM; on human Nav1.7 [3], 0.0054 µM.

In general, IC50 refers to the point on the concentration scale where inhibition reaches its midpoint.
